Assay results reported in the NIST ThermoML archive (doi:10.1021/je700445y).
Numbers after ± are expanded uncertainties.

Assays:
[1] = refractive index (Na D-line) (dimensionless); conditions: 293.15 K; 101.33 kPa; Liquid; Standard Abbe refractometry
[2] = Liquid; for mass density: 293.15 K, 101.33 kPa; for vapor or sublimation pressure: Ebulliometric method (Recirculating still)

Row | vapor or sublimation pressure ([2]; 443.8 K) | Structure (SMILES) | refractive index [1] | mass density [2] | vapor or sublimation pressure ([2]; 341.8 K) | vapor or sublimation pressure ([2]; 398.96 K)
1 | 101.33 ± 0.52 kPa | C=CCCCCCCCC [1-decene] | 1.4214 ± 0.00073 | 741 ± 1 kg/m3 | – | –
2 | – | CCCCCC [hexane] | 1.37486 ± 0.00075 | 660 ± 2 kg/m3 | 101.33 ± 0.53 kPa | –
3 | – | CCCCCCCC [octane] | 1.3965 ± 0.00075 | 708 ± 1 kg/m3 | – | 101.33 ± 0.53 kPa
